Assay results published in ChEMBL document CHEMBL1201862, “PubChem BioAssay data set” (2004).
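Tested at 5 concentrations; 48 h exposure; 96-well plates; endpoints linearly interpolated, else capped at highest concentration. The concentration for 50% growth inhibition is given as GI50.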 Active and inactive are the calls of the source. Cut-off read from the data, not from the text of the source: active = GI50 up to about 1.1 µM and inactive = higher.

How the values were obtained:
Experiment in all cases: growth of human tumour cells (NCI), 48 h
[1] = system: SK-OV-3
[2] = system: SK-MEL-2
[3] = system: OVCAR-5
[4] = system: ACHN
[5] = system: COLO 205
[6] = system: U-251
[7] = system: NCI-H226
[8] = system: IGROV-1
[9] = system: SNB-19
[10] = system: SF-268
[11] = system: T47D
[12] = system: NCI-H522
[13] = system: MDA-MB-435
[14] = system: MCF7
[15] = system: EKVX
[16] = system: M14
[17] = system: CCRF-CEM
[18] = system: BT-549
[19] = system: SR
[20] = system: HL-60

SMILES	GI50 [1]	GI50 [2]	GI50 [3]	GI50 [4]	GI50 [5]	GI50 [6]	GI50 [7]	GI50 [8]	GI50 [9]	GI50 [10]	GI50 [11]	GI50 [12]	GI50 [13]	GI50 [14]	GI50 [15]	GI50 [16]	GI50 [17]	GI50 [18]	GI50 [19]	GI50 [20]
CC(C)=NOC(=O)Nc1cccc2c1OCO2	> 100 µM (inactive)	> 100 µM (inactive)	> 100 µM (inactive)	80.9 µM (inactive)	> 100 µM (inactive)	> 100 µM (inactive)	> 100 µM (inactive)	> 100 µM (inactive)	> 100 µM (inactive)	> 100 µM (inactive)	> 100 µM (inactive)	> 100 µM (inactive)	> 100 µM (inactive)	> 100 µM (inactive)	> 100 µM (inactive)	> 100 µM (inactive)	–	–	–	–
CC(C)C(=O)Oc1cc2c(=O)oc3c(OC(=O)C(C)C)c(OC(=O)C(C)C)cc4c(=O)oc(c1OC(=O)C(C)C)c2c34	> 100 µM (inactive)	–	> 100 µM (inactive)	> 100 µM (inactive)	> 100 µM (inactive)	> 100 µM (inactive)	> 100 µM (inactive)	> 100 µM (inactive)	> 100 µM (inactive)	> 100 µM (inactive)	–	> 100 µM (inactive)	> 100 µM (inactive)	> 100 µM (inactive)	> 100 µM (inactive)	> 100 µM (inactive)	> 100 µM (inactive)	> 100 µM (inactive)	–	–
Cc1cc(C)nc(/C(=N\NC(N)=O)C(=O)Nc2nc3ccc(C)cc3s2)c1	> 100 µM (inactive)	> 100 µM (inactive)	> 100 µM (inactive)	> 100 µM (inactive)	> 47.8 µM (inactive)	> 100 µM (inactive)	> 100 µM (inactive)	> 100 µM (inactive)	> 100 µM (inactive)	> 100 µM (inactive)	–	> 93.1 µM (inactive)	–	–	> 100 µM (inactive)	> 100 µM (inactive)	> 48.1 µM (inactive)	–	19.5 µM (inactive)	> 100 µM (inactive)
Clc1ccc(-c2ccc(-c3nn4c(CNc5ccccc5)nnc4s3)o2)c(Cl)c1	> 100 µM (inactive)	90.4 µM (inactive)	> 100 µM (inactive)	> 100 µM (inactive)	28 µM (inactive)	> 100 µM (inactive)	97.3 µM (inactive)	22.8 µM (inactive)	> 100 µM (inactive)	> 100 µM (inactive)	13.5 µM (inactive)	57.8 µM (inactive)	58.1 µM (inactive)	–	41.5 µM (inactive)	93.3 µM (inactive)	46.7 µM (inactive)	> 100 µM (inactive)	27.5 µM (inactive)	44.3 µM (inactive)
COc1ccc(/C(=N\NC(=S)NN)C(c2ccc(OC)cc2)C2C(=O)Oc3ccccc32)cc1 (stereo not given)	> 10 µM (inactive)	> 10 µM (inactive)	> 10 µM (inactive)	> 10 µM (inactive)	> 10 µM (inactive)	> 10 µM (inactive)	> 10 µM (inactive)	> 10 µM (inactive)	> 10 µM (inactive)	> 10 µM (inactive)	–	65.5 µM (inactive)	–	–	> 10 µM (inactive)	> 10 µM (inactive)	64.9 µM (inactive)	–	80.7 µM (inactive)	> 10 µM (inactive)
Cn1cnc([N+](=O)[O-])c1Sc1nc(N)nc2c1ncn2C1OC(CO)C(O)C1O (stereo not given)	3.48 µM (inactive)	0.497 µM (active)	1.88 µM (inactive)	9.04 µM (inactive)	7.83 µM (inactive)	21.7 µM (inactive)	15.8 µM (inactive)	12.7 µM (inactive)	44.6 µM (inactive)	4.44 µM (inactive)	5.38 µM (inactive)	9.38 µM (inactive)	1.5 µM (inactive)	–	8.39 µM (inactive)	2.28 µM (inactive)	3.15 µM (inactive)	8.41 µM (inactive)	1.53 µM (inactive)	9.44 µM (inactive)
COc1cc(/C=C/c2ccc(/C=C/c3cc(OC)c(OC)c(OC)c3)cc2)cc(OC)c1OC	6 µM (inactive)	20.7 µM (inactive)	60.5 µM (inactive)	16.3 µM (inactive)	51.3 µM (inactive)	13.3 µM (inactive)	20.3 µM (inactive)	26.5 µM (inactive)	13.6 µM (inactive)	11.7 µM (inactive)	3.39 µM (inactive)	8.11 µM (inactive)	55.2 µM (inactive)	> 100 µM (inactive)	> 46.9 µM (inactive)	39.3 µM (inactive)	> 100 µM (inactive)	–	> 100 µM (inactive)	> 66.5 µM (inactive)
C[C@@H]1O[C@@H](O[C@H]2CC[C@]3(C=O)[C@H]4CC[C@]5(C)[C@@H](C6=CC(=O)OC6)CC[C@]5(O)[C@@H]4CC[C@]3(O)C2)[C@H](O)[C@H](O)[C@H]1O [CONVALLATOXIN]	4.37e-05 µM (active)	7.1e-05 µM (active)	4.24e-05 µM (active)	9.73e-06 µM (active)	9.35e-05 µM (active)	5.58e-05 µM (active)	5.35e-05 µM (active)	< 0.01 µM (active)	0.0178 µM (active)	1.21e-05 µM (active)	5.62e-05 µM (active)	9.93e-06 µM (active)	4.23e-05 µM (active)	–	9.51e-06 µM (active)	0.0146 µM (active)	< 0.01 µM (active)	1.32e-05 µM (active)	–	3.42e-05 µM (active)
CC(=O)OCCOCNC(=S)N/N=C(\C)c1cnccn1	46.5 µM (inactive)	> 100 µM (inactive)	7.53 µM (inactive)	13.6 µM (inactive)	28.1 µM (inactive)	29.6 µM (inactive)	28.1 µM (inactive)	26.9 µM (inactive)	73.1 µM (inactive)	17.5 µM (inactive)	–	25.2 µM (inactive)	–	–	22.3 µM (inactive)	17.1 µM (inactive)	13 µM (inactive)	–	18.4 µM (inactive)	15.7 µM (inactive)
COc1cc2cc(C(=O)N3CC(CCl)c4ccc(O)cc43)[nH]c2c(OC)c1OC (stereo not given)	–	0.00169 µM (active)	0.129 µM (active)	< 0.0001 µM (active)	0.0227 µM (active)	0.000791 µM (active)	0.0168 µM (active)	0.0198 µM (active)	0.00406 µM (active)	0.00596 µM (active)	0.0356 µM (active)	< 0.0001 µM (active)	0.00263 µM (active)	< 0.0001 µM (active)	0.0513 µM (active)	0.00163 µM (active)	< 0.01 µM (active)	–	0.0034 µM (active)	0.00647 µM (active)
CC/C=C/C(=O)CC(O)(C(F)(F)F)C(F)(F)F	> 100 µM (inactive)	–	> 100 µM (inactive)	> 100 µM (inactive)	> 100 µM (inactive)	> 100 µM (inactive)	> 100 µM (inactive)	> 100 µM (inactive)	> 100 µM (inactive)	> 100 µM (inactive)	82.2 µM (inactive)	–	> 100 µM (inactive)	> 100 µM (inactive)	> 100 µM (inactive)	> 100 µM (inactive)	73.5 µM (inactive)	–	> 100 µM (inactive)	92.7 µM (inactive)
O=C(NCCCl)SCCO	> 100 µM (inactive)	> 100 µM (inactive)	> 100 µM (inactive)	> 100 µM (inactive)	> 100 µM (inactive)	> 100 µM (inactive)	> 100 µM (inactive)	> 100 µM (inactive)	> 100 µM (inactive)	> 100 µM (inactive)	–	> 100 µM (inactive)	–	–	> 100 µM (inactive)	> 100 µM (inactive)	> 100 µM (inactive)	–	> 100 µM (inactive)	> 100 µM (inactive)
c1ccc(CNc2ncnc3nn[nH]c23)cc1	> 100 µM (inactive)	> 100 µM (inactive)	> 100 µM (inactive)	> 100 µM (inactive)	> 100 µM (inactive)	> 100 µM (inactive)	> 100 µM (inactive)	> 100 µM (inactive)	> 100 µM (inactive)	–	> 100 µM (inactive)	> 100 µM (inactive)	> 100 µM (inactive)	> 100 µM (inactive)	> 100 µM (inactive)	> 100 µM (inactive)	> 100 µM (inactive)	–	–	> 100 µM (inactive)
CNC(=O)/C(C#N)=C(\N)N1CCCC1	> 100 µM (inactive)	> 100 µM (inactive)	> 100 µM (inactive)	> 100 µM (inactive)	> 100 µM (inactive)	> 100 µM (inactive)	> 100 µM (inactive)	> 100 µM (inactive)	> 100 µM (inactive)	> 100 µM (inactive)	> 100 µM (inactive)	> 100 µM (inactive)	> 100 µM (inactive)	–	> 100 µM (inactive)	–	> 100 µM (inactive)	–	> 100 µM (inactive)	> 100 µM (inactive)
N#CCN(Cc1ccccc1)[C@H]1CCC[C@]1(O)/C=C/c1ccc2c(c1)OCO2	46.6 µM (inactive)	20 µM (inactive)	39.3 µM (inactive)	42 µM (inactive)	15.6 µM (inactive)	19.2 µM (inactive)	18.4 µM (inactive)	23.1 µM (inactive)	25.2 µM (inactive)	34.4 µM (inactive)	19.3 µM (inactive)	17 µM (inactive)	20 µM (inactive)	18.7 µM (inactive)	76.9 µM (inactive)	16.5 µM (inactive)	16.4 µM (inactive)	–	17.5 µM (inactive)	16.2 µM (inactive)
CCC1=C(C)/C(=C/c2[nH]c(C(Br)Br)c(CC)c2C)N=C1C(Br)Br	25.4 µM (inactive)	38 µM (inactive)	> 100 µM (inactive)	14.6 µM (inactive)	5.87 µM (inactive)	22.5 µM (inactive)	20.1 µM (inactive)	23.9 µM (inactive)	33.3 µM (inactive)	73.3 µM (inactive)	–	13 µM (inactive)	–	–	30.1 µM (inactive)	55.7 µM (inactive)	13.6 µM (inactive)	–	10.8 µM (inactive)	16.9 µM (inactive)
